From US12325696B2, “Indazole derivative, preparation method therefor, and pharmaceutical application thereof” (JIANGSU HENGRUI MEDICINE CO., LTD., priority 2019, dated 2025)
One block for each compound: values may come before it.

Legend:
[1] = biological target: Nav1.5 ion channel (Homo sapiens (Human), UniProt Q14524); assay: Manual patch clamp inhibition of Nav1.5 current in HEK293 cell; assay type: cell-based; conditions: whole-cell patch clamp, read-out: IC50 on inhibiting the Nav1.5 channel activity
Protocol: The purpose of the experiment is to investigate the effect of the compounds on Nav1.5 ion channel in an […] experiment. Nav1.5 ion channel is stably expressed on HEK293 cell. After the Nav1.5 current becomes stable, the Nav1.5 currents before and after the administration of the compound are compared so as to obtain the effect of the compound on the Nav1.5 ion channel.
Extracellular fluid: NaCl, 137 mM; KCl, 4 mM; CaCl2), 1.8 mM; MgCl2, 1 mM; HEPES, 10; glucose, 10 mM; pH 7.4 (NaOH titration).
Intracellular fluid: aspartic acid, 140 mM; MgCl2, 2 mM; EGTA, 11 mM; HEPES, 10 mM; pH 7.2 (CsOH titration).
The test compound was dissolved in dimethyl sulfoxide (DMSO) at a stock concentration of 9 mM. The stock solution of the test compound was dissolved in the extracellular fluid on the day of the test and formulated into the required concentration.
1) The compound was formulated into solutions with specified concentrations. The solutions were added to the pipelines respectively in order from high to low concentration, and the pipelines were marked.
2) The cell was transferred to the perfusion tank, and perfused with the extracellular fluid. The intracellular fluid was stored in small batches in a −80° C. refrigerator, and melted on the day of the experiment. The electrode was pulled with PC-10 (Narishige, Japan). Recording was carried out with the whole-cell patch clamp, and the noise was filtered at one-fifth of the sampling frequency.
3) All compounds were perfused with a perfusion system that uses its own gravity. Each concentration was tested in at least two cells. After the current stabilized (or after 5 minutes), the blocking effect of the compound was calculated by comparing the changes in the current before and after the administration of the compound.
The cell was clamped at −80 mV. The cell was depolarized to Vhalf with a square wave lasting 8 milliseconds, hyperpolarized to −120 mV with a square wave lasting 20 milliseconds, and depolarized to −10 mV with a square wave lasting 20 milliseconds to obtain the Nav1.5 current. This procedure was repeated every 15 seconds. The maximum current caused by the −10 mV square wave was measured. After the current became stable, the test compound was perfused. After the response became stable, the blocking intensity was calculated.
The data was stored in the computer system for analysis. Data collection and analysis were carried out by pCLAMP 10 (Molecular Devices, Union City, CA). Stable current means that the absolute average value of the peak current of four consecutive scans exceeds 200 pA and the CV value is less than 10%, or the average value of the peak current of four consecutive scans is between 200 pA and 50 pA and the CV value is less than 30%. The average value of the last four current peaks after the current stabilized was used to calculate the effect of the compound at the concentration.

[2] = system: MCF7 ERαY537S; assay: Inhibition of proliferation of MCF7 cell expressing ERα Y537S mutant; assay type: cell-based; conditions: Homo sapiens, 144 hours; for Emax: read-out: Maximum inhibition
Summary of the method: (§1)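 MCF7 cells stably expressing lentiviral ERα Y537S or D538G mutants, seeded 3,000 cells/well, then exposed in 2% FBS MEM to nine 4-fold dilutions from 100 nM for 144 h at 37° C. Viability read by CellTiter-Glo luminescence; IC50 fitted from concentration-response.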

[3] = biological target: estrogen receptor ERα wild-type (Homo sapiens (Human), UniProt P03372); assay: Covalent modification of ERα wild-type LBD by high-resolution mass spectrometry; assay type: binding; conditions: after 24 hours; 2 μM protein, 10 μM compound, 4° C.
Protocol: (§2) The ligand binding domain (LBD, aa296-554) of estrogen receptor ERα wild-type and ERα Y537S mutant-type was expressed in E. coli and purified. 2 μM ERα wild-type or ERα Y537S mutant-type protein and 10 μM compound were added to a buffer solution containing 50 mM Tris-HCl, pH7.5, 150 mM NaCl, 1 mM TCEP and 5% glycerol and mixed well. The solution was incubated at 4° C. for 24 hours, followed by high-resolution mass spectrometry (Agilent Technologies, Agilent Q-tof 6530) assay. Alternatively, 1 μM ERα wild-type or ERα Y537S mutant-type protein and 3 μM compound were added to a buffer solution containing 50 mM Tris-HCl, pH7.5, 150 mM NaCl, 1 mM TCEP and 5% glycerol and mixed well. The solution was incubated at 37° C. for 15 minutes, followed by high-resolution mass spectrometry assay. In the mass spectrometry assay results, the peak whose molecular weight is the sum of the molecular weight of the protein and compound is the product of covalent modification. The percentage of covalent modification is obtained by calculating the ratio of […] to total protein.

[4] = biological target: estrogen receptor ERα Y537S mutant-type (Homo sapiens (Human), UniProt P03372, Y537S); assay: Covalent modification of ERα Y537S mutant-type LBD by high-resolution mass spectrometry; assay type: binding; conditions: after 24 hours; 2 μM protein, 10 μM compound, 4° C.
Protocol: as §2

[5] = system: MCF7 D538G; assay: Inhibition of proliferation of MCF7 cell expressing ERα D538G mutant; assay type: cell-based; conditions: Homo sapiens, 144 hours; for Emax: read-out: Maximum inhibition
Summary of the method: as §1

[6] = system: estrogen receptor reporter gene; assay: Inhibition of estrogen receptor reporter gene activity (ERE-luc luciferase) in MCF7/ERE-luc cells; assay type: cell-based; conditions: Homo sapiens, 0.1 nM β-estradiol, 20 hours, read-out: IC50 of inhibitory activity on the activity of the estrogen receptor reporter gene
Summary of the method: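 MCF7 cells stably carrying ERE-driven luciferase, in charcoal-stripped serum medium, were stimulated with 0.1 nM β-estradiol plus compound (nine 10-fold dilutions from 10 μM) for 20 h at 37° C. ONE-Glo luminescence was read, and IC50 was fitted from signal versus log concentration.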

[7] = system: MCF7 cell; assay: Inhibition of proliferation of MCF7 cell (CellTiter-Glo, 144 hours); assay type: cell-based; conditions: Homo sapiens; for IC50: MCF7, CellTiter-Glo, read-out: IC50 of the inhibitory effect on the proliferation of MCF7 cell; for Emax: MCF7 cell proliferation, read-out: Maximum inhibition
Summary of the method: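 Seeded overnight, MCF7 cells were treated in MEM with 2% FBS with nine 4-fold dilutions from 100 nM (0.5% DMSO blank). Incubation 144 h at 37° C, 5% CO2. CellTiter-Glo luminescence read; IC50 from signal versus log concentration.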

Sequence of estrogen receptor ERα Y537S mutant-type (P03372 296-554 Y537S): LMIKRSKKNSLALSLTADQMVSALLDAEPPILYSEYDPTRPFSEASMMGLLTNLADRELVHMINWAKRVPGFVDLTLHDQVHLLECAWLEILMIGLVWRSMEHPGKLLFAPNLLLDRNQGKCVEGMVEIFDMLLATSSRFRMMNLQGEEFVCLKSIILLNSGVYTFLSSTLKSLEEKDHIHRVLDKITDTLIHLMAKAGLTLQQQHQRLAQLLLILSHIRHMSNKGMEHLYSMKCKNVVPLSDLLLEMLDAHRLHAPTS
Sequence of estrogen receptor ERα wild-type (P03372 296-554): as the sequence (P03372 296-554 Y537S) above, with S242Y counted along it
Sequence of Nav1.5 ion channel (Q14524 whole entry): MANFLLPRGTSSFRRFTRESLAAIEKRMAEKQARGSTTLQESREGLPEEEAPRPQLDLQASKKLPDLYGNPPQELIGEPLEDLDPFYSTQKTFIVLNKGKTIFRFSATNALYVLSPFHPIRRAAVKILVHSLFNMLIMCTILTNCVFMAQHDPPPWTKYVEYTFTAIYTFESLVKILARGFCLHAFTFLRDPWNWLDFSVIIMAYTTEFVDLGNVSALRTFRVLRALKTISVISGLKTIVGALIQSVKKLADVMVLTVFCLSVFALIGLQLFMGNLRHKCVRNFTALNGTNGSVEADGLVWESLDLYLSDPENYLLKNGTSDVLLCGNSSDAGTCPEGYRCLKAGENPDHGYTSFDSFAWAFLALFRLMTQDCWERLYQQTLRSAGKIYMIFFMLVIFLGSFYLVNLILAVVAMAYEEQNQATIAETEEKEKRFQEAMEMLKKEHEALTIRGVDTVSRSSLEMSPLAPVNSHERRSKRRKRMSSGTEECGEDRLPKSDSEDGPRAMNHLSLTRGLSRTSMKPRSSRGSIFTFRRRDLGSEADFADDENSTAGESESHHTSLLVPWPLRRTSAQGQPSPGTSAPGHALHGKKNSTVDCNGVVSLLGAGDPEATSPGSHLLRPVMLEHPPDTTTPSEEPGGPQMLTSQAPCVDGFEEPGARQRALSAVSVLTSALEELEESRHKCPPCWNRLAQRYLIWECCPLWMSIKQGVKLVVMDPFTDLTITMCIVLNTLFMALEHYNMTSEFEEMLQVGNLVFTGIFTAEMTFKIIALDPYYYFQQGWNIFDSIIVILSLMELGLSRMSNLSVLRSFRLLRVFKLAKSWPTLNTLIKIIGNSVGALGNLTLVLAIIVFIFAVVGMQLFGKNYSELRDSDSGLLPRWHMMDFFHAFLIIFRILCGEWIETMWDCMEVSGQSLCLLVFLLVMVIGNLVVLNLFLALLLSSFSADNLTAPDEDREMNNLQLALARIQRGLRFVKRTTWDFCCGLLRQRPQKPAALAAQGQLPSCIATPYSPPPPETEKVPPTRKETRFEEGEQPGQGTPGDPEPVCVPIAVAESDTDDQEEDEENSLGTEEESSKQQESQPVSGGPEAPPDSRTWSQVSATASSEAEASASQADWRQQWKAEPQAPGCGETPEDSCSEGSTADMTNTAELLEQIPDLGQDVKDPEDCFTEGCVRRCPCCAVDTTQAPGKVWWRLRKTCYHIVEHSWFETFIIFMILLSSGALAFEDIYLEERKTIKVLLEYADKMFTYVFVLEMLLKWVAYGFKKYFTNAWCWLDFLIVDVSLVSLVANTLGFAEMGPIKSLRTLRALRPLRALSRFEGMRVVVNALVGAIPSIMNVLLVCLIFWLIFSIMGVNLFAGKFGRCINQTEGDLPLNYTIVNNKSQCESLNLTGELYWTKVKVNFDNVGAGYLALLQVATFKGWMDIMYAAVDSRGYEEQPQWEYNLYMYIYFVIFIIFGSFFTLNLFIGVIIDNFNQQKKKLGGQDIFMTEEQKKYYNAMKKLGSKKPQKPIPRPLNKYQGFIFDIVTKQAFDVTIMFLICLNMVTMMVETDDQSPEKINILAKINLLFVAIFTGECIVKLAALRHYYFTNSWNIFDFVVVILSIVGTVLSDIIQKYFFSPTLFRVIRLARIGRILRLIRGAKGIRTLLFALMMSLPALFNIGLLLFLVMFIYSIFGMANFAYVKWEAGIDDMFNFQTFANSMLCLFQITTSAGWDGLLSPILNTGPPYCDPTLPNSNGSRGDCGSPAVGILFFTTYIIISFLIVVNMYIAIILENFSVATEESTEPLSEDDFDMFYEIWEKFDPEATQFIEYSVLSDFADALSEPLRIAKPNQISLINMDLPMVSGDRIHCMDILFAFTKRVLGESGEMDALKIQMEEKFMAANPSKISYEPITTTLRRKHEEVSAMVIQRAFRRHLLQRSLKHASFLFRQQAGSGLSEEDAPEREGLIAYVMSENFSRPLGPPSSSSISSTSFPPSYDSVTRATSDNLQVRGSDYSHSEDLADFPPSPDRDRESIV

SMILES: O=C(/C=C/CNCCOc1ccc(/C(=C(/CC(F)(F)F)c2ccccc2)c2ccc3[nH]nc(F)c3c2)cn1)N1CCOCC1 [Example 43, (E)-1-Morpholino-4-((2-((5-((Z)-4,4,4-trifluoro-1-(3-fluoro-1H-indazol-5-yl)-2-phenylbut-1-en-1-yl)pyridin-2-yl)oxy)ethyl)amino)but-2-en-1-one, reference compound]
- IC50 [1]: 2700 nM

SMILES: O=C(/C=C/CN1CCC[C@@H](Nc2ccc(/C(=C(/CC(F)(F)F)c3ccccc3)c3ccc4[nH]nc(F)c4c3)cn2)C1)N1CCOCC1 [Example 32, (E)-1-Morpholino-4-((R)-3-((5-((Z)-4,4,4-trifluoro-1-(3-fluoro-1H-indazol-5-yl)-2-phenylbut-1-en-1-yl)pyridin-2-yl)amino)piperidin-1-yl)but-2-en-1-one]
- IC50 [2]: 19 nM
- Emax [2]: 84%
- Covalent modification effect on the estrogen receptor ERα wild-type [3]: 94%
- Covalent modification effect on the estrogen receptor ERα Y537S mutant-type [4]: 95%
- IC50 [5]: 11 nM
- Emax [5]: 95%
- IC50 [6]: 28 nM
- IC50 [7]: 5 nM
- Emax [7]: 100%

SMILES: O=C(/C=C/CN[C@H]1CCCN(c2ccc(/C(=C(/CC(F)(F)F)c3ccccc3)c3ccc4[nH]nc(F)c4c3)cn2)C1)N1CCOCC1 [Example 38, (E)-1-Morpholino-4-(((S)-1-(5-((Z)-4,4,4-trifluoro-1-(3-fluoro-1H-indazol-5-yl)-2-phenylbut-1-en-1-yl)pyridin-2-yl)piperidin-3-yl)amino)but-2-en-1-one]
- IC50 [2]: 4 nM
- Emax [2]: 102%
- Covalent modification effect on the estrogen receptor ERα wild-type [3]: 95%
- Covalent modification effect on the estrogen receptor ERα Y537S mutant-type [4]: 96%
- IC50 [5]: 2 nM
- Emax [5]: 108%
- IC50 [6]: 5 nM
- IC50 [7]: 0.8 nM
- Emax [7]: 96%

SMILES: O=C(/C=C/CNC1(COc2ccc(/C(=C(/CC(F)(F)F)c3ccccc3)c3ccc4[nH]nc(F)c4c3)cn2)CC1)N1CCCC1 [Example 2, (E)-1-(Pyrrolidin-1-yl)-4-((1-(((5-((Z)-4,4,4-trifluoro-1-(3-fluoro-1H-indazol-5-yl)-2-phenylbut-1-en-1-yl)pyridin-2-yl)oxy)methyl)cyclopropyl)amino)but-2-en-1-one]
- IC50 [2]: 3 nM
- Emax [2]: 107%
- Covalent modification effect on the estrogen receptor ERα wild-type [3]: 87%
- Covalent modification effect on the estrogen receptor ERα Y537S mutant-type [4]: 90%
- IC50 [5]: 2 nM
- Emax [5]: 104%
- IC50 [6]: 3 nM
- IC50 [7]: 0.6 nM
- Emax [7]: 112%

Further lines, with some results ahead:

- IC50 [2]: 2 nM
- Covalent modification effect on the estrogen receptor ERα wild-type [3]: 94%
- Covalent modification effect on the estrogen receptor ERα Y537S mutant-type [4]: 97%
- IC50 [5]: 2 nM
- IC50 [6]: 4 nM
- IC50 [7]: 0.4 nM
SMILES: CN(C)C(=O)/C=C/CN1CCC[C@@H](Oc2ccc(/C(=C(/CC(F)(F)F)c3ccc(F)cc3)c3ccc4[nH]nc(F)c4c3)cn2)C1 [Example 19, (E)-N,N-Dimethyl-4-((R)-3-((5-((Z)-4,4,4-trifluoro-1-(3-fluoro-1H-indazol-5-yl)-2-(4-fluorophenyl)but-1-en-1-yl)pyridin-2-yl)oxy)piperidin-1-yl)but-2-enamide]
- Emax [2]: 106%
- Emax [5]: 97%
- Emax [7]: 97%

- IC50 [2]: 8 nM
- Covalent modification effect on the estrogen receptor ERα wild-type [3]: 98%
- Covalent modification effect on the estrogen receptor ERα Y537S mutant-type [4]: 99%
- IC50 [5]: 5 nM
- IC50 [6]: 6 nM
- IC50 [7]: 1 nM
SMILES: O=C(/C=C/CN1CCC[C@@H](Oc2ccc(/C(=C(/CC(F)(F)F)c3ccccc3)c3ccc4[nH]nc(F)c4c3)cn2)C1)N1CCNCC1 [Example 18, (E)-1-(Piperazin-1-yl)-4-((R)-3-((5-((Z)-4,4,4-trifluoro-1-(3-fluoro-1H-indazol-5-yl)-2-phenylbut-1-en-1-yl)pyridin-2-yl)oxy)piperidin-1-yl)but-2-en-1-one]
- Emax [2]: 92%
- Emax [5]: 104%
- Emax [7]: 100%

- IC50 [2]: 2 nM
- Covalent modification effect on the estrogen receptor ERα wild-type [3]: 96%
- Covalent modification effect on the estrogen receptor ERα Y537S mutant-type [4]: 97%
- IC50 [5]: 1 nM
- IC50 [6]: 3 nM
- IC50 [7]: 0.1 nM
SMILES: CN(C)C(=O)/C=C/CNC1(COc2ccc(/C(=C(/CC(F)(F)F)c3ccccc3)c3ccc4[nH]nc(F)c4c3)cn2)CCCCC1 [Example 8, (E)-N,N-Dimethyl-4-((1-(((5-((Z)-4,4,4-trifluoro-1-(3-fluoro-1H-indazol-5-yl)-2-phenylbut-1-en-1-yl)pyridin-2-yl)oxy)methyl)cyclohexyl)amino)but-2-enamide]
- Emax [2]: 107%
- Emax [5]: 103%
- Emax [7]: 113%

- IC50 [2]: 3 nM
- Covalent modification effect on the estrogen receptor ERα wild-type [3]: 80%
- Covalent modification effect on the estrogen receptor ERα Y537S mutant-type [4]: 83%
- IC50 [5]: 2 nM
- IC50 [6]: 6 nM
- IC50 [7]: 0.7 nM
SMILES: CN(C)C(=O)/C=C/CN1CCC[C@@H](Nc2ccc(/C(=C(/CC(F)(F)F)c3ccccc3)c3ccc4[nH]nc(F)c4c3)cn2)C1 [Example 31, (E)-N,N-Dimethyl-4-((R)-3-((5-((Z)-4,4,4-trifluoro-1-(3-fluoro-1H-indazol-5-yl)-2-phenylbut-1-en-1-yl)pyridin-2-yl)amino)piperidin-1-yl)but-2-enamide]
- Emax [2]: 105%
- Emax [5]: 101%
- Emax [7]: 97%
